Results published in patent publication US20250295083A1, “METHODS FOR PRODUCING AN ORGANOGENIC CALLUS AND COMPOSITIONS, SYSTEMS, AND METHODS RELATING THERETO” (Pairwise Plants Services, Inc., priority 2022, published 2025).
Entries after “also recorded” stand apart in the source; their conditions may differ.

Test system: cross sections of the stems (including nodes) of the lateral shoots, cherry variety Sweetheart
Experiment: Callus induction from cut stem cross sections (including nodes) cultured on media
Type: cell-based, sweet cherry (Prunus avium)
Conditions: 24° C., 8 weeks in the dark
Protocol: The cherry variety, Sweetheart, was grown in a greenhouse and stem tissue was collected. The stem tissue was grown in vitro on propagation media (Table 1) at 25° C., 40 μM light with a 16 hour photoperiod until lateral shoots began to emerge. The stem tissue with lateral shoots were grown on the propagation media for no more than 10 days and were collected by day 10.
Leaves and petioles were removed from the lateral shoots and cross sections of the stems (including nodes) of the lateral shoots were cut. The cross sections of the stems were about 0.5 mm wide. For the purpose of inducing callus formation, the cut material was then placed onto either Garin media as described in Garin, E., et al. (1997). Plant cell, tissue and organ culture, 48(2), 83-91, media comprising 2 mg TDZ, media comprising 5 mg TDZ, or media comprising 10 mg TDZ and cultured at 24° C. for 8 weeks in the dark. The plant material was moved to fresh media approximately every three weeks. If endophyte growth was noted as the experiment was progressing, then the media was supplemented with 200 mg/L cefoxatime. Approximately 149 nodes were processed and cultured on the media containing 5 mg TDZ. Approximately 149 nodes were processed and cultured on the media containing 10 mg TDZ. Approximately 324 nodes were processed and cultured on the Garin media. The lateral shoots were cultured for a total of 8 weeks on the medias described above and then observed for the formation of callus.

With `O=C(Nc1ccccc1)Nc1cnns1` [TDZ, thidiazuron] the “Observations (callus formation)” value (media comprising 2 mg TDZ) was “Small amount of callus formed”, the “Observations (callus formation)” value (media comprising 5 mg TDZ) was “Moderate amount of callus but much” and the “Observations (callus formation)” value (media comprising 10 mg TDZ (10 mg/L)) was “many more of the tissues developing callus; also recorded: along with considerably more mass being”. For the same compound, the tissues forming callus (media comprising 10 mg TDZ) was “Nearly 100% of tissues forming callus”.
